Laboratory results published in patent US11046647B2, “Activators of the unfolded protein response” (The Board of Trustees of the University of Illinois, priority 2018, dated 2021).

How the values were obtained:
[1] = tested on: ERα positive and ERα negative cells; type: cell-based
Experimental: ALAMAR BLUE RAPTINAL ASSAYS: Cells were plated at 4,000-10,000 cells/well (96 well plate), usually in 50 μl of medium. After about 18 hours, an additional 50 μl of medium containing 2× the desired final concentration of the test compound (C-105) was added to each well. After 24 hours Alamar Blue reagent was added and fluorescence in the wells was read (BMG PheraStar or Molecular Devices Spectra Max M3 Microplate Reader). % relative death was determined by setting the reading for raptinal-treated cells to 100% dead cells and the reading for vehicle-treated cells to 0% dead cells.
ERα positive MCF-7 breast cancer, Caov-3 ovarian cancer and ECC-1 uterine cancer cells and ERα negative MDA-MB-231 human breast cancer cells and HeLa, human cervical carcinoma cells and MCF-10A human mammary epithelial cells were plated at 10,000 cells/well (96 well plate) in 50 μl of medium. After about 18 hours, an additional 50 μl of medium containing 2× the desired final concentration of the test compound (C-105) was added to each well (final vol. 100 μl/well). After 24 hours Alamar Blue reagent was added and fluorescence in the wells was read after 1 hour (BMG PheraStar Microplate Reader). % relative death was determined by setting the reading for 10,000 nM raptinal-treated cells to 100% dead cells and the reading for vehicle-treated cells to 0% dead cells. (Data is the average ±SEM of 3 independent experiments with 5 biological replicates for each sample within each independent experiment.)
FIG. 3 compares the ability of (±)-105 to kill ERα positive and ERα negative cells. The dose response tests the ability of (±)-105 to rapidly kill ERα positive and ERα negative cells. […] After 24 hours Alamar Blue reagent was added and fluorescence in the wells was read. % relative death was determined by setting the reading for […] raptinal-treated cells to 100% dead cells and the reading for vehicle-treated cells to 0% dead cells. […]

T47D, TYS and TDG cells = assay: MTS proliferation assay (4 days), T47D, TYS and TDG; type: cell-based, human
Experimental: FIG. 30 compares the ability of BHPI and test compounds to inhibit proliferation of T47D, TYS and TDG cells. T47D cells were in medium containing 10 FBS (which contains estrogen), TYS-4 and TDG-1 cells were in medium containing 10% cd-FBS (estrogen depleted). Cells are plated at 2,000 cells/well in 96 well plates. After 24 hours in medium containing FBS or charcoal-dextran treated FBS (depleted of endogenous estrogens), the indicated concentration of each compound (in DMSO at 1/1000th of the volume of medium) was added. After 2 days the medium was changed, and the compounds were added again. After 2 additional days (4 days total) MTS assays are used to evaluate cell proliferation. (n=6 ±S.E.M.).

## O=C1Nc2c(C(F)(F)F)cccc2C1(c1ccc(O)cc1)c1ccc(OC(F)(F)F)cc1 (racemic) [(±)-105, 3-(4-hydroxyphenyl)-3-(4-(trifluoromethoxy)phenyl)-7-(trifluoromethyl)indolin-2-one]
[1]; 0-10,000 nM, 24 hours
  selectivity for ERα positive cancer cell lines: selective for ERα positive cancer cell lines
[1]; concentrations more than 10 times higher than those that kill ERα positive cells
  effect in ERα negative cell lines: no effect
T47D, TYS and TDG cells
  effectiveness in killing compared with BHPI: more effective than BHPI
